According to US20060062823A1, “Microtubule stabilisers for treating stenosis in stents” (priority 2002, published 2006):

Legend:
[1] = system: rat carotid artery balloon injury model; experiment: Inhibition of late neointimal lesion formation in the 28 day rat carotid artery balloon injury model; type: in vivo
rabbit iliac stent model = experiment: Inhibition of restenosis at 28 days in the rabbit iliac stent model; type: in vivo, New Zealand White rabbit; settings: 28 days after stenting, vs placebo
Protocol: A.2 Inhibition of Restenosis at 28 Days in the Rabbit Iliac Stent Model
A combined angioplasty and stenting procedure is performed in New Zealand White rabbit iliac arteries. Iliac artery balloon injury is performed by inflating a 3.0×9.0 mm angioplasty balloon in the mid-portion of the artery followed by “pull-back” of the catheter for 1 balloon length. Balloon injury is repeated 2 times, and a 3.0×12 mm stent is deployed at 6 atm for 30 seconds in the iliac artery. Balloon injury and stent placement is then performed on the contralateral iliac artery in the same manner. A post-stent deployment angiogram is performed. All animals receive oral aspirin 40 mg/day daily as anti-platelet therapy and are fed standard low-cholesterol rabbit chow. Twenty-eight days after stenting, animals are anesthetized and euthanized and the arterial tree is perfused at 100 mmHg with lactated Ringer's for several minutes, then perfused with 10% formalin at 100 mmHg for 15 minutes. The vascular section between the distal aorta and the proximal femoral arteries is excised and cleaned of periadventitial tissue. The stented section of artery is embedded in plastic and sections are taken from the proximal, middle, and distal portions of each stent. All sections are stained with hematoxylin-eosin and Movat pentachrome stains. Computerized planimetry is performed to determine the area of the internal elastic lamina (IEL), external elastic lamina (EEL) and lumen. The neointima and neointimal thickness is measured both at and between the stent struts. The vessel area is measured as the area within the EEL. Data are expressed as mean±SEM. Statistical analysis of the histologic data is accomplished using analysis of variance (ANOVA) due to the fact that two stented arteries are measured per animal with a mean generated per animal. A P<0.05 is considered statistically significant.
An MIA, e.g. a compound of formula 1, e.g. epothilone B is administered orally by gavage at an initial dose one day prior to stenting, then dosed at 50% of the initial dose from the day of stenting until day 27 post-stenting.

[2] = (+)-Discodermolide release from polymer coatings in aqueous solution; type: physicochemical; settings: polylactide glycolide coated stent pieces in PBS pH 7.4 or PEG 400/water 40/60 v/v, 37° C., solutions changed daily; stable = less than 10% of variation of the release rate
Protocol: (§1) A stent (e.g. a Multi-Link Vision stent, Guidant Corp.; or a DRIVER stent, Medtronic Corp.) is weighed and then mounted on a rotating or other support for coating with a polymer or other synthetic or biologic carrier used as a drug reservoir. In an example of an application of one such carrier, while the stent is rotating, a 100 μl aliquot of a solution of polylactide glycolide, 0.75 mg/ml of (+)-discodermolide and 0.0015 mg/ml 2,6-di-tert-butyl-4-methylphenol dissolved in a 50:50 mixture of methanol and tetrahydrofuran, is coated onto it. The coated stent is removed from the support and allowed to air-dry. After a final weighing the amount of coating on the stent is determined.
A.4 (+)-Discodermolide Release from Polymer Coatings in Aqueous Solution
Four 2 cm pieces of coated stents as described above are placed into 100 mL of phosphate buffer solution (PBS) having a pH of 7.4. Another 4 pieces from each series are placed into 100 mL of polyethylene glycol (PEG)/water solution (40/60 v/v, MW of PEG=400). The stent pieces are incubated at 37° C. in a shaker. The buffer and PEG solutions are changed daily and different assays are performed on the solution to determine the released (+)-discodermolide concentrations.

[3] = (+)-Discodermolide release from polymer coatings in plasma; type: physicochemical; settings: coated stent pieces in citrated human plasma, 37° C., plasma changed daily
Protocol: as §1
A.5 (+)-Discodermolide Release from Polymer Coatings in Plasma
Release of (+)-discodermolide in plasma can also be studied. 1 cm pieces of a coated stent are put into 1 mL of citrated human plasma (from Helena Labs.) in lyophilized form and reconstituted by adding 1 mL of sterile deionized water. Three sets of stent plasma solutions are incubated at 37° C. and the plasma is changed daily. Different assays are performed on the solution to determine the released (+)-discodermolide concentrations.

[4] = administered locally to the adventitia via catheter/Alzet minipump

Molecule | infiltration of CD45+ leukocytes ([1]; administered locally to the adventitia adjacent to the ballooned carotid via catheter/Alzet minipump, day 1) | constrictive remodeling [1, 4] | early (9 days post-ballooning) and late (21-31 days post-ballooning) neointimal lesions [1, 4] | CD45-positive leukocyte infiltration into the vessel wall and adventitia ([1]; rats dosed orally, daily, 1 day after balloon injury) | neointimal lesion formation following balloon injury ([1]; rats dosed orally, daily, at 9 and 12 days) | extent of restenotic lesion formation (rabbit iliac stent model; oral gavage from one day prior to stenting until day 27) | lesion formation in the portions of artery immediately proximal and immediately distal to the stent (rabbit iliac stent model; oral gavage) | number of inflammatory cells, especially in the area surrounding the stent struts (rabbit iliac stent model; oral gavage) | drug release from coated stents [2] | drug release from coated stents in plasma [3]
C/C(=C\c1csc(C)n1)[C@@H]1C[C@@H]2O[C@]2(C)CCC[C@H](C)[C@H](O)[C@@H](C)C(=O)C(C)(C)[C@@H](O)CC(=O)O1 [epothilone B] | potent inhibition | potent inhibition | potent inhibition | significantly reduce | significantly reduce | marked reduction | inhibited | significantly reduced | – | –
(+)-discodermolide | – | – | – | – | – | – | – | – | stable (+)-discodermolide release | stable (+)-discodermolide release
